Source: patent US9556165B2 (priority 2012, dated 2017)
Converted amounts (≈) assume the structure as drawn. Where two headings read alike, the source gives them in different places.

Experiments:
Type in all cases: cell-based
E. coli ATCC25922 = test: MIC determination, broth microdilution (CLSI); details: for MIC: Escherichia coli, ATCC25922, strain 1
K. pneumoniae 60 = test: MIC determination, broth microdilution (CLSI); details: for MIC: Klebsiella pneumoniae, 60, strain 2
E. cloacae 34654 = test: MIC determination, broth microdilution (CLSI); details: for MIC: Enterobacter cloacae, 34654, strain 3
C. freundii K21/3034 = test: MIC determination, broth microdilution (CLSI); details: for MIC: Citrobacter freundii, K21/3034, strain 4
M. morganii 126/3048 = test: MIC determination, broth microdilution (CLSI); details: for MIC: Morganella morganii, 126/3048, strain 5
P. aeruginosa PAO1 = test: MIC determination, broth microdilution (CLSI); details: for MIC: Pseudomonas aeruginosa, PAO1, strain 6
[1] = system: P. aeruginosa 2297 (AmpC wt); test: MIC determination, broth microdilution (CLSI); details: Pseudomonas aeruginosa, strain 7
[2] = system: P. aeruginosa 2297-con (AmpC derepressed); test: MIC determination, broth microdilution (CLSI); details: Pseudomonas aeruginosa, read-out: strain 8 MIC, strain 8
A. baumannii ATCC15308 = test: MIC determination, broth microdilution (CLSI); details: for MIC: Acinetobacter baumannii, ATCC15308, strain 9
S. maltophilia ICB7569 = test: MIC determination, broth microdilution (CLSI); details: Stenotrophomonas maltophilia, ICB7569, strain 10
S. aureus 133 = test: MIC determination, broth microdilution (CLSI)
H. influenzae ATCC 49247 = test: MIC determination, broth microdilution (CLSI); details: broth microdilution; for MIC: Haemophilus influenzae, ATCC49247, strain 12, read-out: MIC strain 12 (H. influenzae ATCC 49247)
S. pneumoniae 113 = test: MIC determination, broth microdilution (CLSI); details: broth microdilution; for MIC: Streptococcus pneumoniae, 113, strain 13, read-out: MIC strain 13 (S. pneumoniae 113)
B. fragilis 6688 = test: MIC determination, broth microdilution (CLSI); details: broth microdilution; for MIC: Bacteroides fragilis, 6688, strain 15, read-out: MIC strain 15 (B. fragilis 6688)
C. perfringens DSM756 = test: microbe, parasite or virus in culture; details: broth microdilution; for MIC: Clostridium perfringens, DSM756, read-out: MIC strain 16 (C. perfringens DSM756), strain 16
E. coli J62 = test: MIC determination, broth microdilution (CLSI); details: broth microdilution; for MIC: Escherichia coli, J62, strain 17, read-out: MIC strain 17 (E. coli J62)
E. coli J62-TEM-3 = test: MIC determination, broth microdilution (CLSI); details: broth microdilution; for MIC: Escherichia coli, J62TEM3, read-out: MIC strain 18 (E. coli J62-TEM-3), strain 18
Bacteria = test: MIC determination in combination with β-lactamase inhibitors (constant 4 μg/mL)
[3] = Staphylococcus aureus, 133, strain 11, read-out: strain 11 MIC
[4] = Staphylococcus aureus, 133, strain 14, broth microdilution, read-out: MIC strain 14 (S. aureus 133)

SMILES	MIC (E. coli ATCC25922) [µg/mL]	MIC (K. pneumoniae 60) [µg/mL]	MIC (E. cloacae 34654) [µg/mL]	MIC (C. freundii K21/3034) [µg/mL]	MIC (M. morganii 126/3048) [µg/mL]	MIC (P. aeruginosa PAO1) [µg/mL]	MIC [1] [µg/mL]	MIC [2] [µg/mL]	MIC (A. baumannii ATCC15308) [µg/mL]	MIC (S. maltophilia ICB7569) [µg/mL]	MIC (S. aureus 133; [3]) [µg/mL]	MIC (S. aureus 133; [4]) [µg/mL]	MIC (H. influenzae ATCC 49247) [µg/mL]	MIC (S. pneumoniae 113) [µg/mL]	MIC (B. fragilis 6688) [µg/mL]	MIC (C. perfringens DSM756) [µg/mL]	MIC (E. coli J62) [µg/mL]	MIC strain 19 (E. coli J62-TEM-3 + 4 μg/mL clavulanic acid) (Bacteria)	MIC strain 20 (E. coli J62-TEM-3 + 4 μg/mL sulbactam) (Bacteria)	MIC strain 21 (E. coli J62-TEM-3 + 4 μg/mL tazobactam) (Bacteria)	also measured
CC1(C)[C@H](NC(=O)/C(=N\O[C@@H](COc2ccc(C(=N)NCC3CCCCN3)cc2)C(=O)O)c2csc(N)n2)C(=O)N1OS(=O)(=O)O (stereo partly drawn) [Example 99, (2S)-2-({[(1Z)-1-(2-Amino-1,3-thiazol-4-yl)-2-{[(3S)-2,2-dimethyl-4-oxo-1-(sulfooxy)-azetidin-3-yl]amino}-2-oxoethylidene]amino}oxy)-3-{4-[N-(piperidin-2-ylmethyl)carbamimidoyl]phenoxy}propanoic acid]	0.125 (≈ 0.183 µM)	0.25 (≈ 0.366 µM)	0.25 (≈ 0.366 µM)	0.125 (≈ 0.183 µM)	≤ 0.063	2 (≈ 2.93 µM)	2 (≈ 2.93 µM)	2 (≈ 2.93 µM)	2 (≈ 2.93 µM)	4 (≈ 5.86 µM)	≤ 0.063	32 (≈ 46.9 µM)	≤ 0.063	0.5 (≈ 0.732 µM)	8 (≈ 11.7 µM)	0.5 (≈ 0.732 µM)	0.25 (≈ 0.366 µM)	0.125 mg/L	0.125 mg/L	0.25 mg/L	MIC (E. coli J62-TEM-3): 4 µg/mL (≈ 5.86 µM)
CC1(C)[C@H](NC(=O)/C(=N\O[C@@H](COc2ccc(C(=N)NCC3CCCN3)cc2)C(=O)O)c2csc(N)n2)C(=O)N1OS(=O)(=O)O (stereo partly drawn) [Example 98, (2S)-2-({[(1Z)-1-(2-Amino-1,3-thiazol-4-yl)-2-{[(3S)-2,2-dimethyl-4-oxo-1-(sulfooxy)-azetidin-3-yl]amino}-2-oxoethylidene]amino}oxy)-3-{4-[N-(pyrrolidin-2-ylmethyl)carbamimidoyl]phenoxy}propanoic acid]	0.125 (≈ 0.187 µM)	0.125 (≈ 0.187 µM)	0.125 (≈ 0.187 µM)	0.125 (≈ 0.187 µM)	≤ 0.063	1 (≈ 1.5 µM)	2 (≈ 2.99 µM)	2 (≈ 2.99 µM)	1 (≈ 1.5 µM)	4 (≈ 5.98 µM)	≤ 0.063	32 (≈ 47.9 µM)	≤ 0.063	0.5 (≈ 0.748 µM)	8 (≈ 12 µM)	2 (≈ 2.99 µM)	0.125 (≈ 0.187 µM)	0.125 mg/L	0.125 mg/L	0.125 mg/L	MIC (E. coli J62-TEM-3): 8 µg/mL (≈ 12 µM)
CC1(C)[C@H](NC(=O)/C(=N\OCCOc2ccc(C(=N)NCC(=O)O)cc2)c2csc(N)n2)C(=O)N1OS(=O)(=O)O [Example 73, N-[{4-[2-({[(1Z)-1-(2-Amino-1,3-thiazol-4-yl)-2-{[(3S)-2,2-dimethyl-4-oxo-1-(sulfo-oxy)azetidin-3-yl]amino}-2-oxoethylidene]amino}oxy)ethoxy]phenyl}(imino)methyl]glycine]	0.5 (≈ 0.834 µM)	0.5 (≈ 0.834 µM)	0.5 (≈ 0.834 µM)	0.5 (≈ 0.834 µM)	0.5 (≈ 0.834 µM)	16 (≈ 26.7 µM)	32 (≈ 53.4 µM)	32 (≈ 53.4 µM)	16 (≈ 26.7 µM)	32 (≈ 53.4 µM)	≤ 0.063	32 (≈ 53.4 µM)	0.25 (≈ 0.417 µM)	≤ 0.063	8 (≈ 13.3 µM)	4 (≈ 6.67 µM)	1 (≈ 1.67 µM)	0.5 mg/L	0.5 mg/L	1 mg/L	MIC (E. coli J62-TEM-3): 32 µg/mL (≈ 53.4 µM)
CC1(C)[C@H](NC(=O)/C(=N\OCCOc2ccc(C(=N)NCCCN)cc2)c2csc(N)n2)C(=O)N1OS(=O)(=O)O [Example 83, (2Z)-2-[(2-{4-[N-(3-Aminopropyl)carbamimidoyl]phenoxy}ethoxy)imino]-2-(2-amino-1,3-thiazol-4-yl)-N-[(3S)-2,2-dimethyl-4-oxo-1-(sulfooxy)azetidin-3-yl]ethanamide]	0.125 (≈ 0.209 µM)	0.25 (≈ 0.418 µM)	0.25 (≈ 0.418 µM)	0.125 (≈ 0.209 µM)	0.5 (≈ 0.835 µM)	2 (≈ 3.34 µM)	4 (≈ 6.68 µM)	4 (≈ 6.68 µM)	0.25 (≈ 0.418 µM)	16 (≈ 26.7 µM)	≤ 0.063	2 (≈ 3.34 µM)	≤ 0.063	≤ 0.063	4 (≈ 6.68 µM)	2 (≈ 3.34 µM)	0.25 (≈ 0.418 µM)	0.125 mg/L	0.25 mg/L	0.25 mg/L	MIC (E. coli J62-TEM-3): 4 µg/mL (≈ 6.68 µM)
CC1(C)[C@H](NC(=O)/C(=N\O[C@@H](COc2ccc(C(=N)N[C@@H]3CCNC3)cc2)C(=O)O)c2csc(N)n2)C(=O)N1OS(=O)(=O)O [Example 96]	0.125 (≈ 0.191 µM)	≤ 0.063	≤ 0.063	≤ 0.063	≤ 0.063	1 (≈ 1.53 µM)	1 (≈ 1.53 µM)	1 (≈ 1.53 µM)	1 (≈ 1.53 µM)	4 (≈ 6.11 µM)	≤ 0.063	32 (≈ 48.9 µM)	≤ 0.063	0.5 (≈ 0.764 µM)	8 (≈ 12.2 µM)	1 (≈ 1.53 µM)	0.125 (≈ 0.191 µM)	≦0.063 mg/L	≦0.063 mg/L	≦0.063 mg/L	MIC (E. coli J62-TEM-3): 4 µg/mL (≈ 6.11 µM)
CC1(C)[C@H](NC(=O)/C(=N\OCc2ccc(C(=N)N)cc2)c2csc(N)n2)C(=O)N1OS(=O)(=O)O [Example 57, (2Z)-2-(2-Amino-1,3-thiazol-4-yl)-2-{[(4-carbamimidoylbenzyl)oxy]imino}-N-[(3S)-2,2-dimethyl-4-oxo-1-(sulfooxy)azetidin-3-yl]ethanamide]	1 (≈ 1.95 µM)	2 (≈ 3.91 µM)	2 (≈ 3.91 µM)	1 (≈ 1.95 µM)	1 (≈ 1.95 µM)	32 (≈ 62.6 µM)	32 (≈ 62.6 µM)	16 (≈ 31.3 µM)	2 (≈ 3.91 µM)	32 (≈ 62.6 µM)	≤ 0.063	4 (≈ 7.82 µM)	0.125 (≈ 0.244 µM)	≤ 0.063	1 (≈ 1.95 µM)	2 (≈ 3.91 µM)	2 (≈ 3.91 µM)	1 mg/L	1 mg/L	2 mg/L	MIC (E. coli J62-TEM-3): 32 µg/mL (≈ 62.6 µM)
CC1(C)[C@H](NC(=O)/C(=N\OCCOc2ccc(C(=N)N[C@H](CN)CO)cc2)c2csc(N)n2)C(=O)N1OS(=O)(=O)O [Example 85, (2Z)-2-{[2-(4-{N-[(2R)-1-Amino-3-hydroxypropan-2-yl]carbamimidoyl}phenoxy)ethoxy]imino}-2-(2-amino-1,3-thiazol-4-yl)-N-[(3S)-2,2-dimethyl-4-oxo-1-(sulfooxy)azetidin-3-yl]ethanamide]	0.25 (≈ 0.407 µM)	0.5 (≈ 0.813 µM)	0.5 (≈ 0.813 µM)	0.25 (≈ 0.407 µM)	0.25 (≈ 0.407 µM)	4 (≈ 6.51 µM)	8 (≈ 13 µM)	8 (≈ 13 µM)	2 (≈ 3.25 µM)	32 (≈ 52.1 µM)	≤ 0.063	8 (≈ 13 µM)	≤ 0.063	≤ 0.063	4 (≈ 6.51 µM)	4 (≈ 6.51 µM)	0.5 (≈ 0.813 µM)	0.25 mg/L	0.25 mg/L	0.5 mg/L	MIC (E. coli J62-TEM-3): 8 µg/mL (≈ 13 µM)
CC1(C)[C@H](NC(=O)/C(=N\OCC(Oc2ccc(C(=N)N)cc2)C(=O)O)c2csc(N)n2)C(=O)N1OS(=O)(=O)O (single isomer, unassigned) [Example 87B]	–	–	–	–	–	–	32 (≈ 54.6 µM)	32 (≈ 54.6 µM)	–	16 (≈ 27.3 µM)	–	–	–	–	–	–	–	0.5 mg/L	1 mg/L	2 mg/L	strain 1 MIC (E. coli ATCC25922; strain 1): 0.5 mg/L; strain 2 MIC (K. pneumoniae 60; strain 2): 0.5 mg/L; strain 3 MIC (E. cloacae 34654; strain 3): 1 mg/L; strain 4 MIC (C. freundii K21/3034; strain 4): 0.5 mg/L; strain 5 MIC (M. morganii 126/3048; strain 5): 0.25 mg/L; strain 6 MIC (P. aeruginosa PAO1; strain 6): 16 mg/L; strain 9 MIC (A. baumannii ATCC15308; strain 9): 16 mg/L; strain 11 MIC (S. aureus 133; strain 11): ≦0.063 mg/L; MIC strain 12 (H. influenzae ATCC 49247) (H. influenzae ATCC 49247; strain 12): 0.125 mg/L (≈ 0.213 µM); MIC strain 13 (S. pneumoniae 113) (S. pneumoniae 113; strain 13): 1 mg/L (≈ 1.71 µM); MIC strain 15 (B. fragilis 6688) (B. fragilis 6688; strain 15): 16 mg/L (≈ 27.3 µM); MIC strain 16 (C. perfringens DSM756) (C. perfringens DSM756; strain 16): 16 mg/L (≈ 27.3 µM); MIC strain 17 (E. coli J62) (E. coli J62; strain 17): 1 mg/L (≈ 1.71 µM); MIC strain 18 (E. coli J62-TEM-3) (E. coli J62-TEM-3; strain 18): 32 mg/L (≈ 54.6 µM)
